Results as given in ChEMBL document CHEMBL1201862, “PubChem BioAssay data set” (2004).
Active and inactive are the calls of the source.

Tests used:
Major prion protein = Major prion protein (Homo sapiens, UniProt P04156); format: functional, cell-based
cells [1] = test: cells
[2] = cytotoxicity toward DRD oncogenic fibroblasts, dose response, cell-based, non-viral oncogenic, luminescence (AID 1934); format: functional; settings: Homo sapiens
[3] = MC4R antagonists, dose response, counter-screen for LGR2 antagonist project, cell-based, plate reader, cherry pick (AID 743444); format: functional;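 further: transfected HEK 293 cells stimulated with alpha-MSH peptide; potency of inhibitors of the alpha-MSH evoked signal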
[4] = LGR2 antagonists, dose response, cell-based, HEK293, CRE-luciferase reporter, cherry pick, set 2 (AID 743343); format: functional;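 further: transfected cells were stimulated with diluted bursicon conditioned medium after compound addition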
BJ [5] = test: cells; format: functional, cell-based; settings: Homo sapiens
[6] = inhibitors of SNCA 5'UTR-driven reporter translation, confirmation, H4 neuroglioma cells, luminescence (AID 1988); format: functional, cell-based
BJ [7] = test: cytotoxicity toward BJ-TERT fibroblasts, dose response, cell-based, RAS-independent, luminescence (AID 1933); format: functional; settings: Homo sapiens
[8] = A549 cell cytotoxicity, dose response, cytotoxicity control, plate reader, cherry-pick, antagonist series (AID 743412); format: functional, cell-based
BJ [9] = test: cytotoxicity toward BJ-TERT-LT-ST fibroblasts, dose response, cell-based, RAS-independent, luminescence (AID 1935); format: functional; settings: Homo sapiens;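 further: BJ fibroblasts immortalized with TERT plus LT and ST oncogenes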
[10] = HEK293 cell cytotoxicity, dose response, cytotoxicity control, plate reader, cherry-picked samples (AID 743446); format: functional, cell-based
[11] = Luminescence Cell-Based Dose Response HTS to Identify Inhibitors of 5'UTR Stem-Loop Driven Prion Protein mRNA Translation in H4 Neuroglioblastoma Cells. [Related pubchem assays: 1827 (Project Summary), 1813 (Primary HTS)]; format: functional
[12] = HepG2 cell cytotoxicity, dose response, cytotoxicity control, plate reader, cherry-pick, antagonist series (AID 743416); format: functional, cell-based
[13] = CEM21 lymphoblast cell cytotoxicity, dose response, cytotoxicity control for viral fusion inhibitor project, CellTiter-Glo luminescence, cherry-picked (AID 652042); format: functional, cell-based;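 further: potency for signal decrease meaning cytotoxicity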
[14] = off-target signal loss in HeLa-CEM21 co-culture – HeLa F-luc CTL cells, cherry-picked, counter-screen for HIV-1 Env fusion inhibitor project, dose response (AID 652040); format: functional, cell-based;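 further: potency for signal decrease marking cytotoxic or nonspecific inhibition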
[15] = inhibitors of HIV Env-driven cell fusion, dose response, cherry-pick (AID 652057); format: functional, cell-based
[16] = molecular target: Photoreceptor-specific nuclear receptor (Homo sapiens, UniProt Q9Y5X4); format: functional, cell-based;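 further: CHO-S cells with Gal4-NCOR and VP16-NR2E3 two-hybrid luciferase reporter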
[17] = Counterscreen for activators of the function of SWI/SNF related, matrix associated, actin dependent regulator of chromatin, subfamily a, member 2 (SMARCA2, BRM): Luminescence-based cell-based high throughput dose response assay to identify non-selective compounds using the VP16 reporter assay.; format: functional
[18] = molecular target: SWI/SNF-related matrix-associated actin-dependent regulator of chromatin subfamily A member 2 (Homo sapiens, UniProt P51531); test: Luminescence-based cell-based high throughput dose response assay to identify activators of the function of SWI/SNF related, matrix associated, actin dependent regulator of chromatin, subfamily a, member 2 (SMARCA2, BRM).; format: functional
Estrogen receptor beta = Estrogen receptor beta (Homo sapiens, UniProt Q92731);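 further: recombinant ER-beta bound to coactivator SRC1 peptide in presence of estradiol agonist; inhibitors block coactivator peptide binding and lower the FRET signal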
[19] = inhibitors of intracellular T. cruzi replication, confirmation, NIH3T3 host cells, beta-gal luminescence (AID 2044); format: functional, cell-based;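 further: intracellular parasites grown in NIH/3T3 mouse fibroblasts as host cells; luminescent beta-galactosidase reporter signal from transgenic T. cruzi replicating inside host cells; inhibitors lower the luminescence signal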
cells [20] = test: cells; remark: listed apart in the source
[21] = cytotoxicity toward NIH3T3 fibroblasts, dose response, counter-screen, cell-based, ATP luminescence, mouse fibroblasts (AID 2010); format: functional;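 further: cells exposed to compound for about 90 hours before reading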
Bcl-2-like protein 1 = Bcl-2-like protein 1 (Homo sapiens, UniProt Q07817); test: BCL-XL inhibitors, dose response, selectivity assay for MCL1 inhibitor project, biochemical, fluorescence polarization, 1536-well (AID 2218)
[22] = molecular target: Induced myeloid leukemia cell differentiation protein Mcl-1 (Homo sapiens, UniProt Q07820); test: MCL1-BIM BH3 interaction inhibitors, dose response, biochemical, fluorescence polarization, BIM-BH3 peptide, 1536-well (AID 2217)
H9c2 = test: cells; format: functional, cell-based; settings: Rattus norvegicus, H9c2, Myocardium;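 further: confirmatory concentration-response retest of ultra-high-throughput screening hits for modulation of myocardial damage; cell death induced by hydrogen peroxide oxidative stress; compound pretreatment for 60 min then peroxide exposure for 2 h; potency is for protecting the cells against peroxide damage rather than for killing them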
[23] = molecular target: T1, Heat shock factor protein 1 (Mus musculus, UniProt P38532); test: inhibition of MG132-induced HSE-luciferase signal, confirmation, cell-based, NIH3T3, luminescence, dose retest (AID 2382); format: functional;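 further: NIH3T3 fibroblasts with HSF1-driven luciferase reporter stressed by proteasome inhibitor MG132; luminescence from HSF1-driven luciferase expression after 8 hours of MG132 stress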
T1 sequence (P38532 whole entry): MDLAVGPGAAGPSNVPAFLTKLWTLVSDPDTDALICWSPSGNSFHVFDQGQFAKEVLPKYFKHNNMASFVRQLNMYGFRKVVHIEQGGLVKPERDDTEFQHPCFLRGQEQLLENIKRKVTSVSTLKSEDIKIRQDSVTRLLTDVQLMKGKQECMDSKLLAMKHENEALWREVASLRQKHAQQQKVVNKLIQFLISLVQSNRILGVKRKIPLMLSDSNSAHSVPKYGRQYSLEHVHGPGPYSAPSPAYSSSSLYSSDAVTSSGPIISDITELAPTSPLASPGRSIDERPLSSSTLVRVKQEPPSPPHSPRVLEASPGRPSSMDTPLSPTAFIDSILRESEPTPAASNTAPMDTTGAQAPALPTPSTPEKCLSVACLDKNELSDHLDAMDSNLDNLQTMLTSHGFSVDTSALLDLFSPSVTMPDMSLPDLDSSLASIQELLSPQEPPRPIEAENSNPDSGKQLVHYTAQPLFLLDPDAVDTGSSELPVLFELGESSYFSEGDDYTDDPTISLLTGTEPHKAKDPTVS

[24] = molecular target: T2, COUP transcription factor 2 (Homo sapiens, UniProt P24468); test: Luminescence-based cell-based high throughput dose response assay to identify inhibitors of COUP-TFII (NR2F2).; format: functional;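 further: HEK293 cells transiently cotransfected with COUP-TFII expression vector and reporter; luciferase reporter luminescence driven by COUP-TFII from the pX2-168 reporter plasmid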
T2 sequence (P24468 whole entry): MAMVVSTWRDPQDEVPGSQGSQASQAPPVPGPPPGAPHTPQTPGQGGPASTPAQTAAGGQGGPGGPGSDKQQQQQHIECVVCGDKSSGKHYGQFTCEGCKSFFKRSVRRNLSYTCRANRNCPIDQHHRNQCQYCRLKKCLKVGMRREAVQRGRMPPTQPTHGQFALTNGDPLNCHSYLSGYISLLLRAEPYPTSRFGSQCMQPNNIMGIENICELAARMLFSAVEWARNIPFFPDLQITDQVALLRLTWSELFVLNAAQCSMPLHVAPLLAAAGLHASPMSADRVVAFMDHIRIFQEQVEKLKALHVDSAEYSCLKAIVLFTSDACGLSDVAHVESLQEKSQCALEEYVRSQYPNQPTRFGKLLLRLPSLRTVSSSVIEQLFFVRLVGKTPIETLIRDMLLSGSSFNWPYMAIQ

Vero = test: Vero cell toxicity, dose response, cytotoxicity control, plate reader, cherry-pick samples (AID 687020); format: functional, cell-based; settings: Chlorocebus sabaeus

SMILES: CC(=O)c1sccc1NC(=O)c1ccccc1C(=O)O
- IC50 (Major prion protein): 3.09 µM (active)
- IC50 (cells [1]): > 138 µM (inactive)

SMILES: Cc1cccc(NC(=O)c2onc3c2CCCC3)n1
- EC50 [2]: 13.3 µM (active)
- AC50 [3]: 5.51 µM (active)
- AC50 [4]: 3.23 µM (active)
- EC50 (BJ [5]): 15 µM (active)
- EC50 [6]: 6.78 µM (active)
- EC50 (BJ [7]): 18 µM (active)
- AC50 [8]: 19.6 µM (active)
- EC50 (BJ [9]): > 150 µM (inconclusive)
- AC50 [10]: 15.9 µM (active)
- EC50 [11]: 8.8 µM (active)
- AC50 [12]: 19.4 µM (active)

SMILES: Cc1cccc(C)c1N(CC(O)Cn1c2ccccc2c2ccccc21)S(C)(=O)=O (stereo not drawn)
- AC50 [13]: 60.4 µM (active)
- AC50 [14]: > 70 µM (inactive)
- AC50 [15]: 17.1 µM (active)

SMILES: COc1ccc2c(CC(=O)Nc3ncc(C)s3)coc2c1
- IC50 [16]: 1.11 µM (active)
- EC50 [17]: > 91.2 µM (inactive)
- EC50 [18]: > 91.2 µM (inactive)

SMILES: O=c1[nH]c2ccccc2c(=O)n1Cc1ccco1
- IC50 (Estrogen receptor beta): > 50 µM (not active)

SMILES: CCc1ccc(CN2CCCC(CNC(=O)c3cccc(OC)c3OC)C2)cc1 (stereo not drawn)
- EC50 [19]: < 0.1 µM (active)
- EC50 (cells [20]): 0.37 µM (active)
- EC50 [21]: > 60 µM (not active)

SMILES: CNc1ccccc(C(=O)/C=C/c2ccccc2OC)c1=O
- IC50 (Bcl-2-like protein 1): > 109 µM (not active)
- IC50 [22]: > 109 µM (not active)
- IC50 (H9c2): 11.5 µM (active)

SMILES: Cc1sc(NC(=O)c2ccco2)c(C(c2cccnc2)N2CCN(c3ccc(F)cc3)CC2)c1C (stereo not drawn)
- EC50 [19]: < 0.1 µM (active)
- EC50 (cells [20]): 0.385 µM (active)
- EC50 [21]: > 60 µM (not active)

SMILES: COCCn1c(C)c(C)c2c(NCCc3ccccc3)ncnc21
- AC50 [3]: 9.75 µM (active)
- AC50 [4]: 6.87 µM (active)
- AC50 [10]: > 52 µM (inactive)
- EC50 [23]: < 0.16 µM (active)
- IC50 [24]: 40.1 µM (inactive)

SMILES: NC(=O)c1cc(Cl)cn(-c2ccccc2)c1=O
- AC50 (Vero): 33.7 µM (active)

SMILES: COc1ccc(CN2CCCC(CO)(Cc3cccc(Cl)c3)C2)cc1OC (stereo not drawn)
- EC50 [19]: < 0.1 µM (active)
- EC50 (cells [20]): 0.352 µM (active)
- EC50 [21]: > 30 µM (not active)
